From patent US10131652B2, “Pyrimidinyloxy benzene derivatives as herbicides” (E. I. DU PONT DE NEMOURS AND COMPANY, priority 2014, dated 2018)
Like-named read-outs stand apart in the source and are kept apart here.

What was measured:
Assay in all cases: Test F pre-/postemergence plant response
Type in all cases: in vivo
[1] = system: Brazilian crabgrass (Digitaria horizontalis); conditions: Digitaria horizontalis, scale 0 to 100, read-out: Plant response rating, Crabgrass, Brazil
Description: (§1) Seeds of plant species selected from corn (Zea mays), soybean (Glycine max), velvetleaf (Abutilon theophrasti), lambsquarters (Chenopodium album), wild poinsettia (Euphorbia heterophylla), palmer pigweed (Amaranthus palmeri), waterhemp (common waterhemp, Amaranthus rudis), surinam grass (Brachiaria decumbens), large (Lg) crabgrass (Digitaria sanguinalis), Brazilian crabgrass (Digitaria horizontalis), fall panicum (Panicum dichotomiflorum), giant foxtail (Setaria faberii), green foxtail (Setaria viridis), goosegrass (Eleusine indica), johnsongrass (Sorghum halepense), ragweed (common ragweed, Ambrosia elatior), barnyardgrass (Echinochloa crus-galli), sandbur (southern sandbur, Cenchrus echinatus), arrowleaf sida (Sida rhombifolia), Italian ryegrass (Lolium multiflorum), dayflower (Virginia (VA) dayflower, Commelina virginica), field bindweed (Convolvulus arvensis), cocklebur (common cocklebur, Xanthium strumarium), momingglory (Ipomoea coccinea), nightshade (eastern black nightshade, Solanum ptycanthum), kochia (Kochia scoparia), yellow nutsedge (Cyperus esculentus), and hairy beggarticks (Bidens pilosa), were planted into a silt loam soil and treated preemergence with test chemicals formulated in a non-phytotoxic solvent mixture which included a surfactant.
(§2) At the same time, plants from these crop and weed species and also waterhemp_RES1, (ALS & Triazine resistant common waterhemp, Amaranthus rudis), and waterhemp_RES2, (ALS & HPPD resistant common waterhemp, Amaranthus rudis) were treated with postemergence applications of test chemicals formulated in the same manner. Plants ranged in height from 2 to 18 cm for postemergence treatments (1- to 4-leaf stage).
(§3) Treated plants and controls were maintained in a greenhouse for 14 to 21 days, after which time all species were compared to controls and visually evaluated. Plant response ratings, summarized in Table F, are based on a scale of 0 to 100 where 0 is no effect and 100 is complete control. A dash (-) response means no test result.

corn (Zea mays) = conditions: Zea mays, scale 0 to 100
Description: as §1, §2, §3

[2] = system: dayflower (Virginia (VA) dayflower, Commelina virginica); conditions: Commelina virginica, scale 0 to 100, read-out: Plant response rating, Dayflower, VA
Description: as §1, §2, §3

[3] = system: fall panicum (Panicum dichotomiflorum); conditions: Panicum dichotomiflorum, scale 0 to 100, read-out: Plant response rating, Panicum, Fall
Description: as §1, §2, §3

[4] = system: field bindweed (Convolvulus arvensis); conditions: Convolvulus arvensis, scale 0 to 100, read-out: Plant response rating, Field Bindweed
Description: as §1, §2, §3

[5] = system: giant foxtail (Setaria faberii); conditions: Setaria faberi, pre-emergence, scale 0 to 100, read-out: Plant response rating, Foxtail, Giant
Description: as §1, §2, §3

[6] = system: goosegrass (Eleusine indica); conditions: Eleusine indica, pre-emergence, scale 0 to 100, read-out: Plant response rating, Goosegrass
Description: as §1, §2, §3

[7] = system: green foxtail (Setaria viridis); conditions: Setaria viridis, pre-emergence, scale 0 to 100, read-out: Plant response rating, Foxtail, Green
Description: as §1, §2, §3

[8] = post-emergence, 8 g ai/ha Postemergence
[9] = post-emergence, 16 g ai/ha Postemergence
[10] = post-emergence, 31 g ai/ha Postemergence
[11] = post-emergence, 62 g ai/ha Postemergence
[12] = post-emergence, 125 g ai/ha Postemergence
[13] = pre-emergence, 8 g ai/ha Preemergence
[14] = pre-emergence, 16 g ai/ha Preemergence
[15] = pre-emergence, 31 g ai/ha Preemergence
[16] = pre-emergence, 62 g ai/ha Preemergence
[17] = pre-emergence, 125 g ai/ha Preemergence

FC(F)c1cc(-c2ccccc2Oc2ncc(Cl)cn2)on1 [Compound 53, 5-chloro-2-[2-[3-(difluoromethyl)-5-isoxazolyl]phenoxy]pyrimidine]
5%: pest or weed control at 31 g/ha [1, 15] | pest or weed control at 16 g/ha [3, 9]
98%: pest or weed control at 125 g/ha [3, 17]
40%: pest or weed control at 16 g/ha [2, 9]
85%: pest or weed control at 62 g/ha [1, 16]
55%: pest or weed control at 16 g/ha [4, 9]
60%: pest or weed control at 125 g/ha [2, 12] | pest or weed control at 125 g/ha [3, 12] | pest or weed control at 125 g/ha [4, 12] | pest or weed control at 125 g/ha ([6]; 125 g ai/ha Preemergence)
10%: pest or weed control at 16 g/ha [1, 9] | Corn plant response rating (crop injury, 0 = no effect, 100 = complete kill) at 125 g/ha (corn (Zea mays); [12]) | pest or weed control at 62 g/ha ([6]; Preemergence)
15%: pest or weed control at 31 g/ha [1, 10] | Corn plant response rating (crop injury, 0 = no effect, 100 = complete kill) at 125 g/ha (corn (Zea mays); [17]) | pest or weed control at 62 g/ha [3, 11]
70%: pest or weed control at 62 g/ha ([5]; 62 g ai/ha Preemergence)
50%: pest or weed control at 62 g/ha [2, 11] | pest or weed control at 62 g/ha [2, 16] | pest or weed control at 31 g/ha [4, 10] | pest or weed control at 62 g/ha [4, 11]
90%: pest or weed control at 125 g/ha [1, 17] | pest or weed control at 125 g/ha ([7]; 125 g ai/ha, Preemergence)
30%: pest or weed control at 8 g/ha [2, 8] | pest or weed control at 31 g/ha [2, 10] | pest or weed control at 8 g/ha [4, 8]
20%: pest or weed control at 62 g/ha [1, 11] | pest or weed control at 125 g/ha [1, 12] | pest or weed control at 31 g/ha [3, 10] | pest or weed control at 31 g/ha ([5]; 31 g ai/ha Preemergence) | pest or weed control at 62 g/ha ([7]; Preemergence)
0%: pest or weed control at 8 g/ha [1, 8] | pest or weed control at 8 g/ha [1, 13] | pest or weed control at 16 g/ha [1, 14] | Corn plant response rating (crop injury, 0 = no effect, 100 = complete kill) at 8 g/ha (corn (Zea mays); [8]) | Corn plant response rating (crop injury, 0 = no effect, 100 = complete kill) at 16 g/ha (corn (Zea mays); [9]) | Corn plant response rating (crop injury, 0 = no effect, 100 = complete kill) at 31 g/ha (corn (Zea mays); [10]) | Corn plant response rating (crop injury, 0 = no effect, 100 = complete kill) at 62 g/ha (corn (Zea mays); [11]) | Corn plant response rating (crop injury, 0 = no effect, 100 = complete kill) at 8 g/ha (corn (Zea mays); [13]) | Corn plant response rating (crop injury, 0 = no effect, 100 = complete kill) at 16 g/ha (corn (Zea mays); [14]) | Corn plant response rating (crop injury, 0 = no effect, 100 = complete kill) at 31 g/ha (corn (Zea mays); [15]) | Corn plant response rating (crop injury, 0 = no effect, 100 = complete kill) at 62 g/ha (corn (Zea mays); [16]) | pest or weed control at 8 g/ha [2, 13] | pest or weed control at 16 g/ha [2, 14] | pest or weed control at 31 g/ha [2, 15] | pest or weed control at 8 g/ha [3, 8] | pest or weed control at 8 g/ha [3, 13] | pest or weed control at 16 g/ha [3, 14] | pest or weed control at 31 g/ha [3, 15] | pest or weed control at 8 g/ha [4, 13] | pest or weed control at 16 g/ha [4, 14] | pest or weed control at 31 g/ha [4, 15] | pest or weed control at 62 g/ha [4, 16] | pest or weed control at 125 g/ha [4, 17] | pest or weed control at 8 g/ha ([5]; 8 g ai/ha Preemergence) | pest or weed control at 16 g/ha ([5]; 16 g ai/ha Preemergence) | pest or weed control at 8 g/ha ([6]; 8 g ai/ha Preemergence) | pest or weed control at 16 g/ha ([6]; 16 g ai/ha Preemergence) | pest or weed control at 31 g/ha ([6]; 31 g ai/ha Preemergence) | pest or weed control at 8 g/ha ([7]; 8 g ai/ha Preemergence) | pest or weed control at 16 g/ha ([7]; 16 g ai/ha, Preemergence) | pest or weed control at 31 g/ha ([7]; 31 g ai/ha, Preemergence)
95%: pest or weed control at 125 g/ha [2, 17] | pest or weed control at 62 g/ha ([3]; pre-emergence, Preemergence) | pest or weed control at 125 g/ha ([5]; 125 g ai/ha Preemergence)
